The text below walks through data of PMC9574863 (Journal of Medicinal Chemistry, 2022).

Values after ≈ are worked out from the molar mass of the structure shown. Like-named read-outs stand apart in the source and are kept apart here.

Data set [1] addresses T1, recombinant hDHODH (Homo sapiens, UniProt Q02127).
T1 construct: plasmid construct pFN2A–truncated hDHODH (31-395); made in house; host or cells: E. coli BL21DE3-Gold (DE3)
It is filed as biochemical. Particulars: for Activity (pIC50): from hDHODH IC50, used for correlation with binding energy; for IC50: recombinant hDHODH, read-out: hDHODH IC50 ± SE. How it is done: The vector produces hDHODH as an N-terminal GST-fusion protein. […] Triton X-100 was added to the lysate to a final concentration of 1% before centrifugation at 14,000g for 40 min at 4 °C. The clarified supernatant was incubated with DNase I for 30 min at room temperature, supplemented with 2 mM dithiothreitol (DTT), and filtered through a 0.45 μm syringe filter as previously described by Sainas et al.[38] The GST-fused enzyme was purified from the bacterial lysate using affinity chromatography on immobilized glutathione-sepharose columns (GE-HiTrap […] 1 mL). The GST tag was not cleaved for further analysis. All the reagents used in the protein expression and purification were supplied by Merck/Sigma-Aldrich if not otherwise specified.
The enzymatic inhibition assay was optimized for being performed on a 96-well plate and to achieve a higher throughput. For each well of the plate, a total volume of 200 μL was used: 5 μL of purified GST-hDHODH, 60 μL of 2,6-dichloroindophenol (DCIP) 500 μM, 20 μL of coenzyme Q10 enzyme 100 μM, 20 μL of dihydroorotate (DHO) 500 μM, and Tris–HCl pH 8 up to a final volume of 200 μL. Inhibitory activity was assessed by monitoring the reduction of DCIP, which is associated with the oxidation of dihydroorotate as catalyzed by the DHODH enzyme. […] The reaction was initiated by the addition of DHO (500 μM), and the absorbance kinetic reduction was monitored at λ = 650 nm using a multi-plate reader (Tecan, M1000Pro). In order to assess the minimum and maximum absorbance values of the enzymatic reaction, a Min control value was obtained by measuring the absorbance without DHO. Similarly, a Max value was obtained by measuring the absorbance with DHO but no inhibitor. A blank reduction calculation was also performed by measuring the absorbance values using 180 μL of Tris–HCl and 20 μL of coenzyme Q10. […] Values are means ± SE of three independent experiments.

Data set [2] is described as follows: log D7.4 by shake-flask method. As to conditions: pH 7.4. As for the experimental part:
In the shake-flask experiments, 50 mM of PBS pH 7.4 was used as the aqueous phase.

A short description of data set [3]: Solubility assay in PBS at pH 7.4. It is filed as physicochemical. Particulars: PBS pH 7.4, 25 °C, LOD set at 6 µM; for Solubility in PBS: 24 h; for solubility at 24 h: aqueous buffer, thermodynamic from solid. As for the experimental part:
These suspensions were filtered through a PTFE 0.45 μm filter (VWR), and the solutions were chromatographically analyzed using a Perkin Elmer UHPLC instrument, equipped with a reverse-phase (RP) C18 Phenomenex column (2.1 × 100 mm, 1.7 μm particle size). […] The flow rate was 0.5 mL/min. The standard injection volume was either 2 or 4 μL for poorly soluble compounds. The detection system was a Perkin Elmer diode-array detector. The wavelengths that were monitored for each compound were defined according to the compound’s own absorption spectrum. Solubility, expressed as μM concentration of the saturated solution, was calculated via interpolation with external calibration curves that were obtained with solutions of each compound in acetonitrile.

Data set [4] concerns MV4-11 cells. Description: Apoptosis on MV4-11, alone or in combination with dipyridamole. As to conditions: MV4-11, compound 1 μM + dipyridamole 1 μM, 3 days.
Procedure: After 3 days of culture, the apoptotic assay was performed using the Annexin V-FITC Kit (Miltenyi Biotec, Italy), according to the manufacturer’s instructions. The apoptotic cells were acquired on FacsVerse and analyzed using Kaluza software version 1.2 (Beckman Coulter Fullerton, CA).
The subject of data set [5] is U937 cells. The data set can be described thus: cells. Particulars: Homo sapiens, U-937, 72 h, read-out: apoptosis EC50 U937 (C.L. 95%).
Data set [6] deals with Jurkat T-cells. Description: CFSE-based cytotoxic activity assay. The class given is cell-based, human. Particulars: for cytotoxicity (effect≥30% ± SD): 3 days, concentration inducing cytotoxicity in ≥30% of cells; for Cytoxicity (effect > 30% ±SD): non-AML cells. As for the experimental part:
Cells were centrifuged and plated (1 × 10^4 in 200 μL of medium), with increasing concentrations of the hDHODH inhibitors (1 μM to 100 μM) for 3 days. Cells were harvested, and 1 μg/mL of propidium iodide was added to assign the ratio of cell death. The percentage of specific lysis was calculated in accordance with the following equation: [dead targets in sample (%) – spontaneously dead targets (%))/(100-spontaneously dead targets (%))] × 100. Spontaneous lysis was obtained by incubating cell lines in the medium supplemented with the corresponding percentage of DMSO used for the dilution of compounds. Values represent the concentration that induces significant cytotoxic effects (≥30%).

Data set [7] concerns THP1 cells. Description: cells. As to conditions: Homo sapiens, THP-1, 72 h, read-out: apoptosis EC50 THP1 (C.L. 95%).
The test system of data set [8] is U937 cells. The data set can be described thus: cells. As to conditions: Homo sapiens, U-937, read-out: differentiation EC50 U937 (C.L. 95%).
Source text: (§1) The differentiation pathway was monitored by analyzing the expression of CD11b (APC-conjugated BD Bioscience San Jose, CA, USA) or CD14 (APC-conjugated Beckam Coulter CA, USA) via flow cytometry analysis. […] Samples were acquired on an FACSVerse (BD-Biosciences San Jose CA) and dead cells were excluded from the analyses, according to the use of propidium iodide (Sigma-Aldrich, Milan, Italy). Data were processed using Kaluza software version 1.2 (Beckman Coulter Fullerton, CA).
For data set [9], the system named is THP1 cells. Description: cells. Particulars: Homo sapiens, THP-1, read-out: differentiation EC50 THP1 (C.L. 95%).
Source text: as §1
Data set [10] in a line: physchem.

T1 sequence (Q02127 31-395): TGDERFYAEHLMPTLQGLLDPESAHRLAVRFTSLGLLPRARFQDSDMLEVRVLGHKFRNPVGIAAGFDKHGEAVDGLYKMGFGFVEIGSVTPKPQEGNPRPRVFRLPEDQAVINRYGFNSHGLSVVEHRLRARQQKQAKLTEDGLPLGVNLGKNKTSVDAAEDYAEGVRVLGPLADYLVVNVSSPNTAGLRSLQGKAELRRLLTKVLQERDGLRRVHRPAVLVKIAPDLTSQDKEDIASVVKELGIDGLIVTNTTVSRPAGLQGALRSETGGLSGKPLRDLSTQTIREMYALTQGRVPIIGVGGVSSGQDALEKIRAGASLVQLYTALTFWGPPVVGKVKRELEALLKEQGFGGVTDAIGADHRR

For `Cc1cc(Oc2ccccc2)c(C)cc1NC(=O)c1c(O)nn2ccccc12` [Compound 1], in data set [1], the “Activity (pIC50)” value is 7.30 and the 50% inhibitory concentration (IC50) was 0.05 ± 0.005 µM. The IC50 in data set [1] (in vitro assay) amounted to 0.05 ± 0.005 µM.
For `Cc1cc(NC(=O)c2c(O)nn3ccccc23)ccc1Oc1ccccc1` [Compound 2], the “Activity (pIC50)” value in data set [1] is recorded as 6.32.
With `Cc1cc(Oc2ccccc2)ccc1NC(=O)c1c(O)nn2ccccc12` [Compound 3], the melting point was 238.3 to 239.9 °C.
In data set [2], `Cc1cc(Oc2ccccc2)c(C(C)C)cc1NC(=O)c1c(O)nn2ccccc12` [Compound 5, 2-Hydroxy-N-(5-isopropyl-2-methyl-4-phenoxyphenyl)pyrazolo[1,5-a]pyridine-3-carboxamide] registered a log distribution coefficient (logD) of 2.91 ± 0.07. Besides, the “times less potent than brequinar on the isolated enzyme” value in [1] is recorded as 63 times. Further, the “Solubility in PBS” value in data set [3] is given as “< LOD”. The “apoptotic rate with dipyridamole” value in [4] is given as 90.54 ± 2.27%. Moreover, the concentration for a half-maximal effect (EC50) in data set [5] was determined as 0.701 µM; in data set [7] it was 0.499 µM; in [8], 0.235 µM; in data set [9], 0.372 µM. Moreover, in [6], the “cytotoxicity (effect≥30% ± SD)” value is recorded as >100,000 nM. Besides, in data set [6], the “Cytoxicity (effect > 30% ±SD)” value is more than 100 µM.
Turning to `Cc1cc(NC(=O)c2c(O)nn3ccccc23)c(OC(C)C)cc1Oc1ccccc1` [Compound 6, 2-Hydroxy-N-(2-isopropoxy-5-methyl-4-phenoxyphenyl)pyrazolo[1,5-a]pyridine-3-carboxamide], the melting point is 239.3 to 240.6 °C (dec.). Also, the “Activity (pIC50)” value in [1] turned out to be 5.28. In data set [1] (in vitro assay), the IC50 turned out to be 5.2 ± 0.9 µM.
For the molecule `Cc1cc(NC(=O)c2c(O)nn3ccccc23)c(OC2CCC2)cc1Oc1ccccc1` [Compound 7, N-(2-Cyclobutoxy-5-methyl-4-phenoxyphenyl)-2-hydroxypyrazolo[1,5-a]pyridine-3-carboxamide], the melting point was 262.5 to 263.3 °C (dec.). Moreover, in data set [1] (in vitro assay), the IC50 was more than 10 µM.
Take `CCC(C)Oc1cc(Oc2ccccc2)c(C)cc1NC(=O)c1c(O)nn2ccccc12` (stereo not shown) [Compound 8, N-(2-(Sec-butoxy)-5-methyl-4-phenoxyphenyl)-2-hydroxypyrazolo[1,5-a]pyridine-3-carboxamide]: in data set [1], the “Activity (pIC50)” value was 5.41. Also, the IC50 in data set [1] (in vitro assay) came to 3.9 ± 0.8 µM.
On the same counts, the results for `CCC(CC)Oc1cc(Oc2ccccc2)c(C)cc1NC(=O)c1c(O)nn2ccccc12` [Compound 9, 2-Hydroxy-N-(5-methyl-2-(pentan-3-yloxy)-4-phenoxyphenyl)pyrazolo[1,5-a]pyridine-3-carboxamide] are 5.66 and 2.21 µM.
Take `CCCC(C)Oc1cc(Oc2ccccc2)c(C)cc1NC(=O)c1c(O)nn2ccccc12` (stereo not shown) [Compound 10, 2-Hydroxy-N-(5-methyl-2-(pentan-2-yloxy)-4-phenoxyphenyl)pyrazolo[1,5-a]pyridine-3-carboxamide]: the melting point is 250.5 to 251.3 °C (dec.). The “Activity (pIC50)” value in data set [1] turned out to be 5.15. In addition, the half-inhibitory concentration (IC50) in [1] (in vitro assay) is 7 ± 1 µM.
In [2], `O=C(Nc1ccc2[nH]ccc2c1)c1c(O)nn2ccccc12` [Compound 11, 2-Hydroxy-N-(1H-indol-5-yl)pyrazolo[1,5-a]pyridine-3-carboxamide] gave a logD of 0.45 ± 0.02. Also, the IC50 in [1] (in vitro assay) is more than 10 µM. Besides, the results for the pKa in data set [10] (by spectroscopic) and in data set [10] (potentiometric titration) were 4.81 ± 0.06 and 4.85 ± 0.03, respectively.
For `O=C(Nc1ccc2c(ccn2-c2ccccc2)c1)c1c(O)nn2ccccc12` [Compound 12, 2-Hydroxy-N-(1-phenyl-1H-indol-5-yl)pyrazolo[1,5-a]pyridine-3-carboxamide], the melting point was 252.4 to 253.8 °C (dec.). This molecule also showed a logD in data set [2] of 2.89 ± 0.05. Besides, the “Activity (pIC50)” value in data set [1] is 5.55. In data set [1] (in vitro assay), the concentration for half-maximal inhibition (IC50) was 2.8 ± 0.4 µM.
In the case of `O=C(Nc1ccc2c(c1)ncn2-c1ccccc1)c1c(O)nn2ccccc12` [Compound 13, 2-Hydroxy-N-(1-phenyl-1H-benzo[d]imidazole-5-yl)pyrazolo[1,5-a]pyridine-3-Carboxamide], the melting point is 258.7 to 260.1 °C (dec.). The logD in data set [2] was 2.55 ± 0.04. Also, in data set [1] (in vitro assay), the half-maximal inhibitory concentration (IC50) was more than 10 µM.
For `O=C(Nc1ccc2c(c1)nnn2-c1ccccc1)c1c(O)nn2ccccc12` [Compound 14, 2-Hydroxy-N-(1-phenyl-1H-benzo[d][1,2,3]triazol-5-yl)pyrazolo[1,5-a]pyridine-3-carboxamide], the melting point is 269.9 to 271.9 °C (dec.). This molecule also had a logD in data set [2] of 1.59 ± 0.03. Moreover, the “Activity (pIC50)” value in [1] is 5.14. In data set [1] (in vitro assay), the IC50 was determined as 7.2 ± 1.6 µM.
`O=C(Nc1ccc(Oc2ccccc2)cn1)c1c(O)nn2ccccc12` [Compound 15, 2-Hydroxy-N-(5-phenoxypyridin-2-yl)pyrazolo[1,5-a]pyridine-3-carboxamide]: the melting point is 161.1 to 161.9 °C (dec.). Further, the 50% inhibitory concentration (IC50) in data set [1] (in vitro assay) was more than 10 µM. Further, the concentration in solution in data set [3] (solubility at 24 h) was 1850 µM (≈ 641 µg/mL).
`O=C(Nc1ccc(Oc2cccc(C(F)(F)F)c2)cn1)c1c(O)nn2ccccc12` [Compound 16, 2-Hydroxy-N-5-[3-(trifluoromethyl)phenoxy]pyridin-2-ylpyrazolo[1,5-a]pyridine-3-carboxamide]: the melting point is 241.2 to 242 °C (dec.). The half-maximal inhibitory concentration (IC50) in data set [1] (in vitro assay) is more than 10 µM.
On to `Cc1cc(Sc2ccncc2)c(C)cc1NC(=O)c1c(O)nn2ccccc12` [Compound 17, 2-Hydroxy-N-(2,5-dimethyl-4-(pyridin-4-ylthio)phenyl)pyrazolo[1,5-a]pyridine-3-carboxamide], for which the melting point is 250.5 to 251.9 °C (dec.). Moreover, in data set [2], the pH-dependent lipophilicity (logD) worked out at 1.76 ± 0.07. Also, in data set [1], the “Activity (pIC50)” value worked out at 5.66. In addition, the IC50 in data set [1] (in vitro assay) stood at 2.2 ± 0.4 µM.
In [2], `Cc1cc(NC(=O)c2c(O)nn3ccccc23)c(C(C)C)cc1Oc1ccncc1` [Compound 18, 2-Hydroxy-N-(2-isopropyl-5-methyl-4-(pyridin-4-yloxy)phenyl)pyrazolo[1,5-a]pyridine-3-carboxamide] displayed a log distribution coefficient (logD) of 2.51 ± 0.07. Moreover, in data set [3], the solubility at 24 h came out at 111 µM (≈ 44.7 µg/mL). In addition, the EC50 came to 9.82 µM in data set [5], 2.65 µM in data set [7], 2.28 µM in data set [8] and 1.97 µM in [9]. Moreover, in data set [6], the “cytotoxicity (effect≥30% ± SD)” value is 75830 ± 10340 nM. Further, the “Cytoxicity (effect > 30% ±SD)” value in data set [6] was 75,8 ± 10,3 µM.
In the case of `Cc1cc(NC(=O)c2c(O)nn3ccccc23)c(C(C)C)cc1Oc1ccc(C(F)(F)F)cc1` [Compound 19, 2-Hydroxy-N-(2-isopropyl-5-methyl-4-(4-(trifluoromethyl)phenoxy)phenyl)pyrazolo[1,5-a]pyridine-3-carboxamide], in data set [1], the “times less potent than brequinar on the isolated enzyme” value is reported as 10 times. Further, the “Solubility in PBS” value in data set [3] is recorded as “< LOD”. Also, the half-maximal effective concentration (EC50) in data set [5] amounted to 0.448 µM; in data set [7] it was 0.23 µM; in data set [8] it was 0.109 µM; in [9], 0.133 µM. The “cytotoxicity (effect≥30% ± SD)” value in data set [6] is recorded as 71320 ± 5250 nM. For the same molecule, the “Cytoxicity (effect > 30% ±SD)” value in data set [6] is 71,3 ± 5,3 µM.

Usually IC50 stands for the concentration at which inhibition is half-maximal. As a reminder, the melting point is the temperature, or range, at which the solid turns liquid. Usually logD stands for lipophilicity at a set pH, counting ionised and neutral species. Usually EC50 stands for the midpoint of the concentration-response curve. The pKa is the pH at which an ionisable group is half protonated. A higher pKa goes with a group that holds its proton tightly. The term solubility denotes the dissolved amount per volume that the medium holds.
